Measurements as given in ChEMBL document CHEMBL6074675, “4-Substituted-2-Thiazole Amides as Viral Replication Inhibitors of Alphaviruses” (J Med Chem, 2024).
Converted amounts (≈) assume the structure as drawn.

Key:
[1] = system: Chikungunya virus; assay: Antiviral activity against Chikungunya virus 181/25 infected in human NHDF cells assessed as reduction of virus titer treated with cells at 1 hr prior to infection and measured at 24 hrs post-infection by plaque assay; type: functional, organism-based; conditions: 181/25, NHDF, time 25 hrs
[2] = Half life of the compound in human liver microsomes in presence of NADPH by LC-MS/MS analysis; type: ADME, Microsome
[3] = system: Chikungunya virus; assay: Antiviral activity against Chikungunya virus 181/25 infected in human NHDF cells assessed as log reduction of virus titer at 10 uM treated with cells at 1 hr prior to infection and measured at 24 hrs post-infection by plaque assay; type: functional; conditions: time 25 hrs
[4] = Kinetic solubility of the compound in simulated intestinal fluid at pH 7.5 by LC-MS analysis; type: physicochemical; conditions: read-out: Kinetic_solubility
[5] = Cytotoxicity against human NHDF cells deficient of IRF3 assessed as reduction in cell viability incubated for 72 hrs by CellTiter Glo luminescence assay; type: toxicity, cell-based
[6] = Half life of the compound in mouse liver microsomes in presence of NADPH by LC-MS/MS analysis; type: ADME, Microsome
[7] = Octanol/PBS buffer distribution coefficient, logD of the compound at pH 7.5 by LC-MS analysis; type: physicochemical
[8] = system: Venezuelan equine encephalitis virus; assay: Antiviral activity against VEEV TC-83 infected in human NHDF cells assessed as log reduction of virus titer at 10 uM treated with cells at 1 hr prior to infection and measured at 24 hrs post-infection by plaque assay; type: functional; conditions: time 25 hrs
[9] = system: West Nile virus; assay: Antiviral activity against West Nile virus NY99 infected in human HEK293 cells assessed as log reduction of virus titer at 10 uM measured at 3 days post-infection by focus-forming assay; type: functional; conditions: time 3 day
[10] = Cytotoxicity against human HEK293 cells; type: toxicity, cell-based
[11] = system: dengue virus type 2; assay: Antiviral activity against Dengue virus 2 NGC infected in human HEK293 cells assessed as log reduction of virus titer at 10 uM measured at 3 days post-infection by focus-forming assay; type: functional; conditions: time 3 day
[12] = system: West Nile virus; assay: Antiviral activity against West Nile virus NY99 infected in human HEK293 cells assessed as reduction of virus load measured at 3 days post-infection by focus-forming assay; type: functional; conditions: NY99, HEK293, 72 h, time 3 day
[13] = system: Venezuelan equine encephalitis virus; assay: Antiviral activity against VEEV TC-83 infected in human NHDF cells assessed as reduction of virus titer treated with cells at 1 hr prior to infection and measured at 24 hrs post-infection by plaque assay; type: functional; conditions: TC-83, NHDF, time 25 hrs
[14] = Cytotoxicity against human NHDF cells assessed as reduction in cell viability incubated for 24 hrs by CellTiter Glo luminescence assay; type: toxicity, cell-based
[15] = system: dengue virus type 2; assay: Antiviral activity against Dengue virus 2 NGC infected in human HEK293 cells assessed as reduction of virus load measured at 3 days post-infection by focus-forming assay; type: functional; conditions: HEK293, 72 h, time 3 day
[16] = system: Zika virus; assay: Antiviral activity against Zika virus PRABC59 infected in human HEK293 cells assessed as log reduction of virus titer at 10 uM measured at 3 days post-infection by focus-forming assay; type: functional; conditions: time 3 day
[17] = system: Zika virus; assay: Antiviral activity against Zika virus PRABC59 infected in human HEK293 cells assessed as reduction of virus load measured at 3 days post-infection by focus-forming assay; type: functional; conditions: PRABC59, HEK293, 72 h, time 3 day

| Structure (SMILES) | EC90 [1] [µM] | half-life [2] [min] | log(activity) [3] | solubility kinetic [4] [µM] | CC50 at 72 h [5] [µM] | half-life [6] [min] | logD [7] | log(activity) [8] | log(activity) [9] | CC50 [10] [µM] | log(activity) [11] | EC90 [12] [µM] | EC90 [13] [µM] | CC50 at 24 h [14] [µM] | EC90 [15] [µM] | log(activity) [16] | EC90 [17] [µM] |
| --- | --- | --- | --- | --- | --- | --- | --- | --- | --- | --- | --- | --- | --- | --- | --- | --- | --- |
| CSc1ncccc1C(=O)Nc1nc(-c2cccc(-c3ccccn3)c2)cs1 | 0.7 | 15 | 4 | < 1 | > 30 | 8 | > 3.83 | – | – | – | – | – | – | – | – | – | – |
| CSc1ncccc1C(=O)Nc1nc(-c2cccc(Nc3ccc(C#N)c(C(=O)O)c3)c2)cs1 | > 40 | 145 | 0.15 | 84 (≈ 41 µg/mL) | > 40 | 72 | 1.4 | – | – | – | – | – | – | – | – | – | – |
| Cc1ncccc1C(=O)Nc1nc(-c2ccc3ccccc3c2)cs1 | 3.2 | 26 | 1.9 | 3 (≈ 1.04 µg/mL) | > 30 | 26 | > 4.27 | – | – | – | – | – | – | – | – | – | – |
| CSc1ncccc1C(=O)Nc1nc(-c2cccc(Nc3ccc(C#N)c(O)c3)c2)cs1 | 10.1 | 43 | 1.2 | 1 (≈ 0.46 µg/mL) | 15.9 | 35 | > 3.46 | – | – | – | – | – | – | – | – | – | – |
| CSc1ncccc1C(=O)Nc1nc(-c2cccc(-c3ccccc3)c2)cs1 | – | 34 | 7.8 | < 1 | > 30 | 51 | > 4.15 | – | – | – | – | – | – | – | – | – | – |
| CSc1ncccc1C(=O)Nc1nc(-c2cccc(Nc3cccc(C#N)c3)c2)cs1 | – | 25 | 5.7 | < 1 | > 30 | 33 | > 3.54 | 7.3 | 4.3 | > 30 | 3.7 | 1.1 | 0.6 | > 30 | 0.5 | 3.4 | 0.4 |
| CSc1ncccc1C(=O)Nc1nc(-c2cc(F)cc(-c3ccc(C#N)cc3)c2)cs1 | – | 53 | 6.1 | < 1 | > 30 | 123 | > 4.09 | – | – | – | – | – | – | – | – | – | – |
| CSc1ncccc1C(=O)Nc1nc(-c2cccc(Nc3ccc(CN)cc3)c2)cs1 | 9.8 | 37 | 1.2 | 33 (≈ 14.8 µg/mL) | 15.4 | 234 | 2.2 | – | – | – | – | – | – | – | – | – | – |
| CSc1ncccc1C(=O)Nc1nc(-c2cc(C(=O)O)cc(-c3ccc(C#N)cc3)c2)cs1 | – | > 300 | 0 | < 1 | > 40 | > 300 | 1.9 | – | – | – | – | – | – | – | – | – | – |
| O=C(Nc1nc(-c2ccc3ccccc3c2)cs1)c1cc(F)c(O)c(F)c1 | 2.9 | 137 | 7.6 | < 1 | 20 | 36 | > 3.45 | – | – | – | – | – | – | – | – | – | – |
| CSc1ncccc1C(=O)Nc1nc(-c2cccc(-c3ccc(C#N)c(O)c3)c2)cs1 | – | 43 | 8.5 | 3 (≈ 1.33 µg/mL) | > 30 | 49 | > 3.91 | – | – | – | – | – | – | – | – | – | – |
| CC(C)(C)c1ccc(C(=O)Nc2nc(-c3ccc4ccccc4c3)cs2)cc1 | 0.1 | 49 | 4.3 | < 1 | > 30 | 8 | > 3.32 | – | – | – | – | – | – | – | – | – | – |
| CSc1ncccc1C(=O)Nc1nc(-c2cc(Nc3ccc(C#N)cc3)cc(N3CCOCC3)c2)cs1 | 0.1 | 15 | 5.1 | < 1 | > 40 | 64 | > 3.92 | 3.81 | – | > 30 | 1.9 | 24 | 0.45 | > 30 | 1.8 | 1.7 | 0.8 |
| CC(C)(C#N)c1ccc(C(=O)Nc2nc(-c3ccc4ccccc4c3)cs2)cc1 | 1.5 | 98 | 2.6 | < 1 | > 30 | 129 | > 3.85 | – | – | – | – | – | – | – | – | – | – |
| CC(C)(C(=O)O)c1ccc(C(=O)Nc2nc(-c3ccc4ccccc4c3)cs2)cc1 | – | 292 | 0 | 64 (≈ 26.7 µg/mL) | > 30 | 213 | 2.1 | – | – | – | – | – | – | – | – | – | – |
| CSc1ncccc1C(=O)Nc1nc(-c2cccc(Nc3ccc(C#N)cn3)c2)cs1 | 4.8 | 19 | 2.2 | < 1 | 40 | 17 | – | – | – | – | – | – | – | – | – | – | – |
| CC(C)(C)c1ncc(C(=O)Nc2nc(-c3ccc4ccccc4c3)cs2)s1 | 3.5 | 51 | 7.5 | < 1 | > 30 | 9 | > 3.03 | – | – | – | – | – | – | – | – | – | – |
| CSc1ncccc1C(=O)Nc1nc(-c2cc(-c3ccc(C#N)cc3)ccc2F)cs1 | – | 85 | 5.8 | < 1 | > 30 | 69 | 2 | – | – | – | – | – | – | – | – | – | – |
| CSc1ncccc1C(=O)Nc1nc(-c2cccc(-c3ccc(C#N)cc3)c2)cs1 | – | 39 | 4.7 | < 1 | > 30 | 57 | > 4.66 | – | – | – | – | – | – | – | – | – | – |
| CSc1ncccc1C(=O)Nc1nc(-c2cccc(N3CCNCC3)c2)cs1 | – | > 300 | 8.7 | 59 (≈ 24.3 µg/mL) | > 30 | 211 | 1.8 | – | – | – | – | – | – | – | – | – | – |
| CSc1ncccc1C(=O)Nc1nc(-c2ccc3ncccc3c2)cs1 | 7.9 | 17 | 1.2 | 56 (≈ 21.2 µg/mL) | 18 | 13 | 3.8 | – | – | – | – | – | – | – | – | – | – |
| CSc1ncccc1C(=O)Nc1nc(-c2cccc(-c3ccc(C#N)cn3)c2)cs1 | – | 25 | 6 | < 1 | > 30 | 34 | > 3.97 | – | – | – | – | – | – | – | – | – | – |
